Data from the RepoRT retention time repository (doi:10.1016/j.chroma.2012.12.030).

Assay: RP, Waters ACQUITY UPLC BEH C18, 100 × 2.1 mm, 1.7 µm, 60 °C, 0.3 mL/min, estimated dead time 0.73 min; A: water + 0.01% formic acid; B: methanol + 0.01% formic acid; gradient (min/%B) 0/10 14/90 16/90
Settings: stereoisomer not certain

Row | Compound | LC retention time
1 | COc1cc2c(c3oc(=O)c4c(c13)CCC4=O)C1CCOC1O2 (stereo not given) | 6.76 min
2 | O=C1OCCN1N=Cc1ccc([N+](=O)[O-])o1 | 2.96 min
3 | CC1CCCC(=O)CCCC=Cc2cc(O)cc(O)c2C(=O)O1 (stereo not given) | 10.3 min
4 | CNC(C)Cc1ccccc1 (stereo not given) | 3.05 min
5 | CCCOC(=O)c1ccc(O)cc1 | 8.97 min
6 | COc1ccc(C(CN(C)C)C2(O)CCCCC2)cc1 (stereo not given) | 6.34 min
7 | O=C(OC1CC2CCC([NH2+]2)C1C(=O)[O-])c1ccccc1 (stereo not given) | 4.3 min
8 | CCNc1nc(NC(C)(C)C)nc(OC)n1 | 9.07 min
9 | COc1ccc2cc(C(C)C(=O)O)ccc2c1 (stereo not given) | 9.74 min
10 | CCC1OC(=O)C(C)C(OC2CC(C)(OC)C(O)C(C)O2)C(C)C(OC2OC(C)CC(N(C)C)C2O)C(C)(O)CC(C)C(=NOCOCCOC)C(C)C(O)C1(C)O (stereo not given) | 9.99 min
11 | CCC(C)C(=O)OC1CC(O)C=C2C=CC(C)C(CCC(O)CC(O)CC(=O)O)C21 (stereo not given) | 9.27 min
12 | O=C(c1ccc(O)cc1O)c1ccc(O)cc1O | 6.4 min
13 | CC1(C)SC2C(NC(=O)Cc3ccccc3)C(=O)N2C1C(=O)O (stereo not given) | 7.08 min
14 | COc1nc(N)nc(NC(C)(C)C)n1 | 6.25 min
15 | CC(COc1ccc(Oc2ccccc2)cc1)Oc1ccccn1 (stereo not given) | 13.4 min
16 | COc1cc(Cc2cnc(N)nc2N)cc(OC)c1OC | 3.15 min
17 | CC(C)Cc1ccc(C(C)C(=O)O)cc1 (stereo not given) | 11.8 min
18 | Cc1cc(C)nc(NS(=O)(=O)c2ccc(N)cc2)n1 | 3.59 min
19 | CCOC(=O)c1ccc(O)cc1 | 7.54 min
20 | COc1ccc(C(=O)c2ccccc2)c(O)c1 | 11.1 min
21 | CNC(=O)Oc1cc(C)c(SC)c(C)c1 | 9.95 min
22 | CCSC(=O)N1CCCCCC1 | 10.4 min
23 | CCNc1nc(NCC)[nH]c(=O)n1 | 2.83 min
24 | CCNc1nc(NC(C)C)[nH]c(=O)n1 | 3.93 min
25 | c1ccc2[nH]c(-c3cscn3)nc2c1 | 4.8 min

Row | Compound | LC retention time
26 | O=C1OC(CN2CCOCC2)CN1N=Cc1ccc([N+](=O)[O-])o1 (stereo not given) | 2.64 min
27 | COc1ccc2nc(S(=O)Cc3ncc(C)c(OC)c3C)[nH]c2c1 (stereo not given) | 7.55 min
28 | COC=C(C(=O)OC)c1ccccc1Oc1cc(Oc2ccccc2C#N)ncn1 | 10 min
29 | Cc1nnc(N=S(=O)(O)c2ccc(N)cc2)s1 | 3.19 min
30 | CC12CCC3c4ccc(O)cc4CCC3C1CC(O)C2O (stereo not given) | 6.96 min
31 | CCOC(=O)C(CCc1ccccc1)NC(C)C(=O)N1CCCC1C(=O)O (stereo not given) | 7.47 min
32 | Cc1cc(NS(=O)(=O)c2ccc(N)cc2)no1 | 3.91 min
33 | CCC(=C(CC)c1ccc(O)cc1)c1ccc(O)cc1 | 10.3 min
34 | CC12CCC3c4ccc(OS(=O)(=O)O)cc4CCC3C1CCC2=O (stereo not given) | 10.6 min
35 | CCOP(=S)(OCC)Oc1cc(C)nc(C(C)C)n1 | 11.9 min
36 | CCC1OC(=O)C(C)C(OC2CC(C)(OC)C(O)C(C)O2)C(C)C(OC2OC(C)CC(N(C)C)C2O)C(C)(O)CC(C)C(=O)C(C)C(O)C1(C)O (stereo not given) | 8.5 min
37 | CCC(C)(C)C(=O)OC1CC(C)C=C2C=CC(C)C(CCC3CC(O)CC(=O)O3)C21 (stereo not given) | 14.2 min
38 | CNC(=O)Oc1cccc2ccccc12 | 7.81 min
39 | C#CC1(O)CCC2C3CCc4cc(O)ccc4C3CCC21C (stereo not given) | 10.1 min
40 | CNC(C)C(=O)c1ccccc1 (stereo not given) | 2.26 min
41 | CCOC(=O)C1C(OC(=O)c2ccccc2)CC2CCC1N2C (stereo not given) | 5.78 min
42 | Cc1cc2c(s1)Nc1ccccc1N=C2N1CCN(C)CC1 | 3.44 min
43 | CCC1OC(=O)C(C)C(OC2CC(C)(OC)C(O)C(C)O2)C(C)C(OC2OC(C)CC(N(C)C)C2O)C(C)(OC)CC(C)C(=O)C(C)C(O)C1(C)O (stereo not given) | 9.78 min
44 | COc1cc2c(c3oc(=O)c4c(c13)CCOC4=O)C1CCOC1O2 (stereo not given) | 5.93 min
45 | COc1cc(O)c(C(=O)c2ccccc2)cc1S(=O)(=O)O | 6.4 min
46 | CC12CCC3c4ccc(O)cc4CCC3C1CCC2=O (stereo not given) | 9.99 min
47 | CC(=O)OCC12CC(OC(=O)CC(C)C)C(C)=CC1OC1C(O)C(O)C2(C)C12CO2 (stereo not given) | 9.07 min
48 | CN1C2CCC1C(C(=O)O)C(OC(=O)c1ccccc1)C2 (stereo not given) | 4.08 min
49 | CCn1cc(C(=O)O)c(=O)c2cnc(N3CCNCC3)nc21 | 2.7 min
50 | CCn1cc(C(=O)O)c(=O)c2ccc(C)nc21 | 7.1 min
